Measurements from publication PMC11149917, “Translational and Therapeutic Evaluation of RAS-GTP Inhibition by RMC-6236 in RAS-Driven Cancers” (Cancer Discovery, 2024).
pEC50: −log10 of the molar value. Values joined by “and” are separate entries in the source; they are usually repeats but may differ in a detail not shown here. Identical values can stand only once. Like-named read-outs stand apart in the source and are kept apart here.

Columns and labels:
[1] = tested on: DUSP6 mRNA in Capan-2 xenograft tumors; assay: In vivo PD by DUSP6 qPCR and PK/PD relationship; design: species or system mouse; conditions: Mus musculus; for inhibition at 25 mg/kg: single oral dose 25 mg/kg
Protocol: (§1) Tumor-bearing animals were randomized and assigned into groups (n = 1–10/group). The vehicle at 10 mL/kg or RMC-6236 at indicated doses was administered via oral gavage daily, and animals were treated for 28 days, or up to 90 days if PFS was being assessed. […] For single-dose PKPD study, mice were randomized and assigned into groups (n = 3/dose/time point). A single dose of RMC-6236 was administered orally at either 3, 10, or 25 mg/kg. Blood and tissues, including the tumor, brain, colon, ear skin, and muscle, were harvested at indicated time points. Whole blood was collected in K2EDTA Microtainer tubes, incubated for 5 minutes, and snap-frozen in liquid nitrogen. The tissue was either fixed in 10% formalin or snap-frozen in liquid nitrogen for further analysis.
(§2) RNA was extracted from at least 20 mg of tissue using an RNeasy Mini Kit (Qiagen, 74104) and a High-Throughput Tissue grinder following the manufacturer's protocol. Reverse transcription was carried out using High-Capacity cDNA Reverse Transcription Kit (ABI, 4368814) according to the manufacturer's protocol. The cDNA product was used for qPCR analysis using TaqMan Gene-Expression Master Mix (ABI, 4369016). TaqMan primer probes specific to DUSP6 (human—Hs00737962_m1, murine—Mm00518185_m1, FAM-MGB) and 18S (RNA18S1; human—Hs99999901_s1, murine—Mm03928990_g1, FAM-MGB, used as an internal control gene) were used to detect the levels from each sample in duplicates using a 10 µL final reaction volume in a 384-well clear optical reaction plate. For qPCR, Ct values of DUSP6 and 18S were obtained for analysis. DUSP6 Ct value was normalized to 18S, and then the mean relative mRNA expression levels of each group were normalized to the vehicle control group. Values were plotted as relative change in mRNA expression compared with vehicle. Means ± SEM were shown.
(§3) Concentrations of RMC-6236 in tumor or normal tissues and percentage of DUSP6 inhibition as compared with the vehicle control from individual animals were collected and analyzed post a single dose of RMC-6236 ranging from 0.3 to 100 mg/kg (Supplementary Table S6). A 3-parameter sigmoidal exposure–response model was fitted to the data in GraphPad Prism to derive EC50 and EC90 values.

[2] = tested on: DUSP6 mRNA in NCI-H441 xenograft tumors; assay: In vivo PD by DUSP6 qPCR and PK/PD relationship; design: species or system mouse; conditions: for % inhibition of DUSP6 vs control: NCI-H441 xenograft tumor
Protocol: as §1, §2, §3

CCn1c(-c2cc(N3CCN(C)CC3)cnc2[C@H](C)OC)c2c3cc(ccc31)-c1csc(n1)C[C@H](NC(=O)[C@H]1C[C@@H]1C)C(=O)N1CCC[C@H](N1)C(=O)OCC(C)(C)C2 [RMC-6236]
inhibition at 10 mg/kg ([1]; Capan-2, single oral dose 10 mg/kg, 8 hours after dose, read-out: inhibition of tumor DUSP6 levels (relative to vehicle control)): > 95% | inhibition at 25 mg/kg ([1]; Capan-2, 8 hours after dose, read-out: inhibition of tumor DUSP6 levels (relative to vehicle control)): > 95% | inhibition at 25 mg/kg ([1]; Capan-2, up to 24 hours after dose, read-out: inhibition of tumor DUSP6 levels (relative to vehicle control)): > 90% | pEC50 ([1]; Capan-2 xenograft tumors, read-out: EC50, inhibition of DUSP6 expression vs RMC-6236 concentration (PK/PD relationship)): 7.05 | EC90 ([1]; Capan-2 xenograft tumors, read-out: EC90, inhibition of DUSP6 expression vs RMC-6236 concentration (PK/PD relationship)): 809 nM | DUSP6 mRNA Expression (%) ([2]; Model Development Dataset, 25mg/kg_study8, 1 h): 30.3376% | DUSP6 mRNA Expression (%) ([2]; Model Development Dataset, 25mg/kg_study8, 2 h): 11.6899% | DUSP6 mRNA Expression (%) ([2]; Model Development Dataset, 25mg/kg_study8, 8 h): 1.524% | DUSP6 mRNA Expression (%) ([2]; Model Development Dataset, 25mg/kg_study8, 24 h): 8.817% | DUSP6 mRNA Expression (%) ([2]; Model Development Dataset, 25mg/kg_study8r (doses every 24 h, 0-[…]), 240 h): 3.766% | DUSP6 mRNA Expression (%) ([2]; Model Development Dataset, 40mg/kg_study8, 1 h): 65.2423% | DUSP6 mRNA Expression (%) ([2]; Model Development Dataset, 40mg/kg_study8, 2 h): 13.6285% | DUSP6 mRNA Expression (%) ([2]; Model Development Dataset, 40mg/kg_study8, 8 h): 4.661% | DUSP6 mRNA Expression (%) ([2]; Model Development Dataset, 40mg/kg_study8, 24 h): 3.474% | DUSP6 mRNA Expression (%) ([2]; Model Development Dataset, 40mg/kg_study8r (doses every 24 h, 0-[…]), 240 h): 0.8569% | DUSP6 mRNA Expression (%) ([2]; Model Validation Dataset, 10mg/kg_study6, 1 h): 45.187% | DUSP6 mRNA Expression (%) ([2]; Model Validation Dataset, 10mg/kg_study6, 8 h): 5.053% | DUSP6 mRNA Expression (%) ([2]; Model Validation Dataset, 10mg/kg_study6, 24 h): 13.225% | DUSP6 mRNA Expression (%) ([2]; Model Validation Dataset, 10mg/kg_study6, 48 h): 62.867% | DUSP6 mRNA Expression (%) ([2]; Model Validation Dataset, 25mg/kg_study6, 1 h): 48.7936% | DUSP6 mRNA Expression (%) ([2]; Model Validation Dataset, 25mg/kg_study6, 8 h): 5.7726% | DUSP6 mRNA Expression (%) ([2]; Model Validation Dataset, 25mg/kg_study6, 24 h): 9.122% | DUSP6 mRNA Expression (%) ([2]; Model Validation Dataset, 25mg/kg_study6, 48 h): 14.7114% | DUSP6 mRNA Expression (%) ([2]; Model Validation Dataset, 25mg/kg_study6, 72 h): 12.5199% | DUSP6 mRNA Expression (%) ([2]; Model Validation Dataset, 50mg/kg_study6, 1 h): 16.7798% | DUSP6 mRNA Expression (%) ([2]; Model Validation Dataset, 50mg/kg_study6, 8 h): 5.52% | DUSP6 mRNA Expression (%) ([2]; Model Validation Dataset, 50mg/kg_study6, 24 h): 5.873% | DUSP6 mRNA Expression (%) ([2]; Model Validation Dataset, 50mg/kg_study6, 48 h): 10.9912% | DUSP6 mRNA Expression (%) ([2]; Model Validation Dataset, 50mg/kg_study6, 72 h): 10.0613% | pEC50 ([2]; Mus musculus, NCI-H441, read-out: EC50, inhibition of DUSP6 expression vs RMC-6236 concentration (PK/PD relationship)): 6.93 | EC90 ([2]; Mus musculus, NCI-H441, read-out: EC90, inhibition of DUSP6 expression vs RMC-6236 concentration (PK/PD relationship)): 1120 nM | % inhibition of DUSP6 vs control ([2]; study NCI-H441#6, 10 mg/kg, 8h): 94.3996% and 97.36% and 93.0812% | % inhibition of DUSP6 vs control ([2]; study NCI-H441#6, 10 mg/kg, 24h): 92.8123% and 75.0577% and 92.455% | % inhibition of DUSP6 vs control ([2]; study NCI-H441#6, 25 mg/kg, 8h): 92.2964% and 95.8141% and 94.5716% | % inhibition of DUSP6 vs control ([2]; study NCI-H441#6, 25 mg/kg, 24h): 90.5813% and 91.1816% and 90.8706% | % inhibition of DUSP6 vs control ([2]; study NCI-H441#6, 25 mg/kg, 48h): 88.2424% and 92.0524% and 75.571% | % inhibition of DUSP6 vs control ([2]; study NCI-H441#6, 50 mg/kg, 8h): 94.9176% and 94.1618% and 94.3607% | % inhibition of DUSP6 vs control ([2]; study NCI-H441#6, 50 mg/kg, 24h): 95.6815% and 94.6463% and 92.0524% | % inhibition of DUSP6 vs control ([2]; study NCI-H441#6, 50 mg/kg, 48h): 89.9053% and 88.838% and 88.2831% | % inhibition of DUSP6 vs control ([2]; study NCI-H441#6, 100 mg/kg, 8h): 96.2144% and 97.8257% and 94.7565% | % inhibition of DUSP6 vs control ([2]; study NCI-H441#6, 100 mg/kg, 24h): 96.5645% and 97.2858% and 99.0371% | % inhibition of DUSP6 vs control ([2]; study NCI-H441#6, 100 mg/kg, 48h): 97.3783% and 95.7557% and 95.9427% | % inhibition of DUSP6 vs control ([2]; study NCI-H441#8, 25 mg/kg, 2h): 93.3108% and 86.9874% and 84.6322% | % inhibition of DUSP6 vs control ([2]; study NCI-H441#8, 25 mg/kg, 8h): 99.2306% and 96.8685% and 99.3302% | % inhibition of DUSP6 vs control ([2]; study NCI-H441#8, 25 mg/kg, 24h): 93.9294% and 85.711% and 93.9083% | % inhibition of DUSP6 vs control ([2]; study NCI-H441#8, 40 mg/kg, 2h): 77.4222% and 82.1626% and 99.5296% | % inhibition of DUSP6 vs control ([2]; study NCI-H441#8, 40 mg/kg, 8h): 94.9481% and 94.7152% and 96.3527% | % inhibition of DUSP6 vs control ([2]; study NCI-H441#8, 40 mg/kg, 24h): 94.2767% and 98.3791% and 96.9223% | % inhibition of DUSP6 vs control ([2]; study NCI-H441#10, 0.3 mg/kg, 8h): 46.2112% and 70.874% and 74.5563% | % inhibition of DUSP6 vs control ([2]; study NCI-H441#10, 0.3 mg/kg, 48h): 38.4266% and 52.8484% and 73.0122% | % inhibition of DUSP6 vs control ([2]; study NCI-H441#10, 1 mg/kg, 48h): 52.6847% and 48.936% and 65.7214% | % inhibition of DUSP6 vs control ([2]; study NCI-H441#10, 10 mg/kg, 8h): 85.6375% and 96.6614% and 94.5007% | % inhibition of DUSP6 vs control ([2]; study NCI-H441#10, 10 mg/kg, 24h): 85.7861% and 76.2602% and 81.9462% | % inhibition of DUSP6 vs control ([2]; study NCI-H441#10, 10 mg/kg, 48h): 44.699% and 49.9869% and 60.6243% | % inhibition of DUSP6 vs control ([2]; study NCI-H441#13, 0.3 mg/kg, 8h): 54.8539% and 55.936% and 78.3465% | % inhibition of DUSP6 vs control ([2]; study NCI-H441#13, 1 mg/kg, 2h): 47.4169% and 56.5427% and 69.4833%
